From US9403798B2, “Triazinone compound and T-type calcium channel inhibitor” (NISSAN CHEMICAL INDUSTRIES, LTD., priority 2012, dated 2016)
pIC50: −log10 of the molar value.

These compounds were tested against T1, Human T-type calcium channel (Cav 3.2) (Homo sapiens, UniProt O95180) (assay: Calcium Influx Inhibition Assay). Conditions: Human T-type calcium channel (Cav 3.2) expressing HEK293 cells, FLIPR Calcium 4 fluorescence.
T1 construct: Edward Perez-Reyes, University of Virginia, USA; host or cells: HEK293
T1 sequence (O95180 whole entry): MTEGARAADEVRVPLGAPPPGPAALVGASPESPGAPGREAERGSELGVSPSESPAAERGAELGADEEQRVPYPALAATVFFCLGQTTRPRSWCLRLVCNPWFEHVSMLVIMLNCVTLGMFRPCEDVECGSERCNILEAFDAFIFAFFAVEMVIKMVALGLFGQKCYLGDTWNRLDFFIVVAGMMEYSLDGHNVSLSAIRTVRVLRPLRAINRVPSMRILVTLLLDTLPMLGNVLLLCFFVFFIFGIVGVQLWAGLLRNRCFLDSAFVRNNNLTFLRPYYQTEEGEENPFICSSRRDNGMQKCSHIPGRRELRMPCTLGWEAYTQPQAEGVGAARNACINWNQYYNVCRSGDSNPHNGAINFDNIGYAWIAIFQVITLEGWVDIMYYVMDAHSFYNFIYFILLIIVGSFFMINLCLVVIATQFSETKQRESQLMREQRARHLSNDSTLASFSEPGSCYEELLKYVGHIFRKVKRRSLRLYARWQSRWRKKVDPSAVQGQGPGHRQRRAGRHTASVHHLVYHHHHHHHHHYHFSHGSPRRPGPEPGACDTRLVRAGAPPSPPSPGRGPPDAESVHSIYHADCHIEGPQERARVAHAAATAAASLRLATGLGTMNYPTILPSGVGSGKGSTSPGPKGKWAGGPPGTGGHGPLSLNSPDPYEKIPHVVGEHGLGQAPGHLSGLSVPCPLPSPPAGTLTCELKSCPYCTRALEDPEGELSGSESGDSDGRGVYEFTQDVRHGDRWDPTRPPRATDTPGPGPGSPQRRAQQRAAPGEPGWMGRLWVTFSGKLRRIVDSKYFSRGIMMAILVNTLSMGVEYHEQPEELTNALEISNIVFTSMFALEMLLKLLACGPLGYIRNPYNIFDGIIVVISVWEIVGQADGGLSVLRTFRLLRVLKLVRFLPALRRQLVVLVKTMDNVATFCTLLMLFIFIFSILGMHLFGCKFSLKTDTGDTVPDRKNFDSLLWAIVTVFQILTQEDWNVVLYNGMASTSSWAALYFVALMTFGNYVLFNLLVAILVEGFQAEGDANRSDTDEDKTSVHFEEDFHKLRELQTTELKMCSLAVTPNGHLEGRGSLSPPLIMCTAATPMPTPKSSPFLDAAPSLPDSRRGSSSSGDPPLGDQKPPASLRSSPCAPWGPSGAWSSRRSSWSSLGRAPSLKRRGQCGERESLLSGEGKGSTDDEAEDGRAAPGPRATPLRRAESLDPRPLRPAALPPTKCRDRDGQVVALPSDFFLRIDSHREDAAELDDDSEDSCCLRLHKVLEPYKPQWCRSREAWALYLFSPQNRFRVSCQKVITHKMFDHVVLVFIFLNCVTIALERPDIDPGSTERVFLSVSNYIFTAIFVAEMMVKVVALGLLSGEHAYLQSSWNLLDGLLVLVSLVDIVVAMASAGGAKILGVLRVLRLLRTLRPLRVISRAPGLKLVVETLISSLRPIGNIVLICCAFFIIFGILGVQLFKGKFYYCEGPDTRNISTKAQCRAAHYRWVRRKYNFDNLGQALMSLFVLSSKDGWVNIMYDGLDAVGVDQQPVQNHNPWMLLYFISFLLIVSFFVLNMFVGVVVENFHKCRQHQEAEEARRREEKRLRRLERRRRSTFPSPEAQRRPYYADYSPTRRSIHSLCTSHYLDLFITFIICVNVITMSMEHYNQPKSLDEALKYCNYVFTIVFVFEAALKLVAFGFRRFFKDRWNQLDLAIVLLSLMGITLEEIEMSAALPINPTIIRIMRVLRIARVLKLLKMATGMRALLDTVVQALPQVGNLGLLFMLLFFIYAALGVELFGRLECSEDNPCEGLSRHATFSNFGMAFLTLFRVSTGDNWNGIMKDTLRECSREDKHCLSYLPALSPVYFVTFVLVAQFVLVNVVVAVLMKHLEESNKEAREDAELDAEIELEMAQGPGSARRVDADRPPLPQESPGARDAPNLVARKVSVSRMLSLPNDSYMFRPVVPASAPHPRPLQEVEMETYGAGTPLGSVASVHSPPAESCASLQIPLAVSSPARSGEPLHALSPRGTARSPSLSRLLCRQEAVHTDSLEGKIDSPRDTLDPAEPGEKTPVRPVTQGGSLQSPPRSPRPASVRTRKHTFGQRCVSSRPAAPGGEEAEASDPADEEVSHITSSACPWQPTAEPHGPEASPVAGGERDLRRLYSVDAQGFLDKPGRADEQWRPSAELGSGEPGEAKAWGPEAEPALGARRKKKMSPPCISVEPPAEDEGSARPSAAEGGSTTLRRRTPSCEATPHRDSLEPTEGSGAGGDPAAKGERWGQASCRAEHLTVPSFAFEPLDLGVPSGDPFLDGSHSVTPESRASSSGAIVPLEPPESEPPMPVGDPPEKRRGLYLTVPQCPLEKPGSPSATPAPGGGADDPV
Type: cell-based
Procedure: 1. Calcium Influx Inhibition Assay
Human T-type calcium channel (Cav 3.2) expressing HEK293 cells were obtained from Prof. Edward Perez-Reyes, University of Virginia, USA. The calcium-sensitive fluorescent dye used was FLIPR Calcium 4 Assay Kit (Molecular Devices). To a black 96-well plate with a clear bottom coated with type I collagen, the human T-type calcium channel (Cav 3.2) expressing HEK293 cells were seeded and cultured overnight, and the culture medium was removed. A solution of the calcium-sensitive fluorescent dye was added, and the plate was incubated at 37° C. in an atmosphere of 5% carbon dioxide for 30 minutes. To the plate, a diluted solution of a compound was added, and the whole was further incubated at 37° C. in an atmosphere of 5% carbon dioxide for 30 minutes. While fluorescence was continuously analyzed from the bottom with a FlexStation 3 (Molecular Devices), a calcium solution was added. […] From the rise in the fluorescence from the base line, the inhibition percentage was calculated. The logarithms of compound concentrations were plotted with respect to the inhibition activities to give an IC50 value.
With `Cc1ccc(C2=CCN(c3nc(C)n(Cc4ccc(OS(=O)(=O)C(F)(F)F)nc4)c(=O)n3)C[C@@H]2O)cc1F` [compound 448] the pIC50 was 7.80.
Compound `Cc1nc(N2CC=C(c3ccc(F)cc3)[C@@H](O)C2)nc(=O)n1Cc1ccc(Cl)s1` [compound 403] has a pIC50 of 8.70.
Work on `O=c1nc(N2CCN(c3ccc(Cl)cc3)CC2)ncn1Cn1ccc(C(F)(F)F)n1` [compound 38] yielded a pIC50 of 7.12.
In the case of `O=c1nc(N2CCN(c3ccc(F)cc3)CC2)ncn1Cn1ccc(C2CCCCC2)n1` [compound 27], the pIC50 was 6.82.
`O=c1nc(N2CC=C(c3ccc(F)cc3)CC2)ncn1Cc1ccc(OCC(F)(F)F)cc1` [compound 468] was tested, and the pIC50 was 7.17.
Work on `CC(c1ccc(C(F)(F)F)s1)n1cnc(N2CC=C(c3ccc(F)cc3)C(O)C2)nc1=O` (stereo not shown) [compound 202] yielded a pIC50 of 7.33.
Work on `O=c1nc(N2CC3C(C2)C3c2ccc(F)cc2)ncn1Cc1ccc(C(F)(F)F)s1` (stereo not shown) [compound 311] yielded a pIC50 of 6.80.
`O=c1nc(N2CC=C(c3cc(F)cc(F)c3)CC2)ncn1Cc1ccc(C(F)(F)F)s1` [compound 285] gave a pIC50 of 7.25.
`Cc1ccccc1N1CCN(c2ncn(Cn3ccc(C(F)(F)F)n3)c(=O)n2)CC1` [compound 59] was tested, and the pIC50 was 6.10.
For `Cc1nc(N2CC=C(c3ccc(F)c(Cl)c3)[C@@H](O)C2)nc(=O)n1Cc1ccc(C(F)(F)F)s1` [compound 350], the pIC50 was 8.96.
`CCCc1nc(N2CC=C(c3ccc(F)cc3)CC2)nc(=O)n1Cc1ccc(C(F)(F)F)s1` [compound 460] was tested, and the pIC50 was 7.21.
`O=c1nc(N2CC=C(c3ccc(Cl)cn3)CC2)ncn1Cc1ccc(C(F)(F)F)s1` [compound 256] gave a pIC50 of 7.38.
In the case of `Cc1nc(N2CCC3(CCN(c4ccc(F)cc4)C3)CC2)nc(=O)n1Cc1ccc(C(F)(F)F)s1` [compound 370], the pIC50 was 6.20.
`CC(=O)OC1CN(c2ncn(Cc3ccc(C(F)(F)F)s3)c(=O)n2)CC=C1c1ccc(F)cc1` (stereo not shown) [compound 476] gave a pIC50 of 7.21.
`Cc1nc(Nc2nc(-c3ccc(F)c(F)c3)cs2)nc(=O)n1Cc1ccc(C(F)(F)F)s1` [compound 383] showed a pIC50 of 7.05.
With `Cc1nc(N2CCC(c3ccc(F)cc3)C(CO)(CO)C2)nc(=O)n1Cc1ccc(C(F)(F)F)s1` (stereo not shown) [compound 485] the pIC50 was 6.39.
With `O=c1nc(N2CC=C(c3ccc(F)cc3)[C@H](O)C2)ncn1Cc1ccc(C(F)(F)F)s1` [compound 316] the pIC50 was 8.64.
In the case of `O=c1nc(N2CC=C(c3ccc(F)c(F)c3)CC2)ncn1Cc1ccc(C(F)(F)F)s1` [compound 264], the pIC50 was 7.55.
`Cc1nc(N2CC=C(c3ccc(F)cc3)CC2)nc(=O)n1Cc1ccc(C(F)(F)F)s1` [compound 340] showed a pIC50 of 7.89.
For `CCOC(=O)c1cc(C(C)(C)C)n(Cn2cnc(N3CCN(c4ccc(F)cc4)CC3)nc2=O)n1` [compound 34], the pIC50 was 6.28.
Compound `O=c1nc(Nc2nc(-c3ccc(F)c(F)c3)cs2)ncn1Cc1ccc(Cl)cc1` [compound 130] has a pIC50 of 7.11.
`COc1nc(N2CCN(c3ccc(F)cc3)CC2)nc(=O)n1Cc1ccc(OCc2ccc(Cl)cc2)cc1` [compound 66] gave a pIC50 of 7.06.
Compound `Cc1nc(N2CC=C(c3ccc(F)cc3)C3(COCOC3)C2)nc(=O)n1Cc1ccc(C(F)(F)F)s1` [compound 486] has a pIC50 of 6.39.
For `O=c1nc(N[C@@H]2CO[C@H](c3ccc(F)cc3)C2)ncn1Cc1ccc(C(F)(F)F)s1` (racemic) [compound 309], the pIC50 was 6.28.
Compound `Cc1nc(N2CC=C(c3ccc(F)cc3)[C@@H](O)C2)nc(=O)n1Cc1ccc(C(F)(F)F)o1` [compound 439] has a pIC50 of 8.16.
In the case of `O=c1nc(N2CC=C(c3cncs3)CC2)ncn1Cc1ccc(C(F)(F)F)s1` [compound 265], the pIC50 was 6.24.
`COc1ccc(C2=CCN(c3ncn(Cc4ccc(C(F)(F)F)s4)c(=O)n3)CC2)s1` [compound 300] was tested, and the pIC50 was 6.80.
Work on `CC(C)(C)c1cc(Cn2cnc(N3CCN(c4ccc(F)cc4)CC3)nc2=O)[nH]n1` [compound 15] yielded a pIC50 of 6.55.
Compound `Cc1nc(N[C@H]2C[C@@H](c3ccc(F)cc3)C2)nc(=O)n1Cc1ccc(C(F)(F)F)s1` [compound 360] has a pIC50 of 7.08.
`O=c1nc(N[C@@H]2CCO[C@H](c3ccc(F)cc3)C2)ncn1Cc1ccc(C(F)(F)F)s1` (racemic) [compound 307] gave a pIC50 of 6.57.
`CC(=O)NC1CN(c2ncn(Cc3ccc(C(F)(F)F)s3)c(=O)n2)CC=C1c1ccc(F)cc1` (stereo not shown) [compound 317] was tested, and the pIC50 was 7.25.
`O=c1nc(N2CCN(c3ccc(F)cc3)CC2)ncn1Cc1ccc(OCC(F)(F)F)nc1` [compound 144] showed a pIC50 of 7.02.
`O=c1nc(N2CC=C(c3ccc(F)cc3)C(O)C2)ncn1Cc1ccc(OS(=O)(=O)C(F)(F)F)nc1` (stereo not shown) [compound 189] was tested, and the pIC50 was 7.92.
With `Cc1nc(N2CC=C(c3ccc(F)cc3)[C@@H](O)C2)nc(=O)n1Cc1ccc(OS(=O)(=O)C(F)(F)F)cc1` [compound 213] the pIC50 was 8.47.
Compound `O=c1nc(N2CC=C(c3ccsc3)CC2)ncn1Cc1ccc(C(F)(F)F)s1` [compound 230] has a pIC50 of 7.66.
For `Cc1nc(N2CCN(c3ccc(F)cc3)CC2)nc(=O)n1Cc1ccc(C(F)(F)F)s1` [compound 344], the pIC50 was 7.92.
In the case of `CN(C)C1CN(c2ncn(Cc3ccc(C(F)(F)F)s3)c(=O)n2)CC=C1c1ccc(F)cc1` (stereo not shown) [compound 481], the pIC50 was 6.33.
In the case of `O=c1nc(N2CC=C(c3ccc(F)cc3)[C@@H](O)C2)ncn1Cc1ccc(C(F)(F)F)s1` [compound 315], the pIC50 was 9.34.
Work on `O=c1nc(N2CC=C(c3ccc(Cl)cc3)CC2)ncn1Cc1ccc(C(F)(F)F)s1` [compound 71] yielded a pIC50 of 7.62.
For `O=c1nc(N2CC=C(c3ccc(F)cc3)[C@@H](O)C2)ncn1Cc1ccc(OS(=O)(=O)C(F)(F)F)cc1` [compound 211], the pIC50 was 8.70.
`Cc1cccc(N2CCN(c3ncn(Cn4ccc(C(F)(F)F)n4)c(=O)n3)CC2)c1` [compound 39] gave a pIC50 of 6.68.
Compound `O=c1nc(N2CC=C(c3ccc(F)cc3)CC2)ncn1Cc1ccc(OCC(F)(F)F)nn1` [compound 162] has a pIC50 of 6.22.
`COc1nc(C2=CCN(c3ncn(Cc4ccc(C(F)(F)F)s4)c(=O)n3)C[C@@H]2O)ccc1Cl` [compound 329] was tested, and the pIC50 was 8.32.
With `CS(=O)(=O)NC1CN(c2ncn(Cc3ccc(C(F)(F)F)s3)c(=O)n2)CC=C1c1ccc(F)cc1` (stereo not shown) [compound 314] the pIC50 was 7.34.
In the case of `O=c1nc(N2CC=C(c3ccc(F)c(Cl)c3)[C@@H](O)C2)ncn1Cc1ccc(Cl)s1` [compound 400], the pIC50 was 8.36.
`CC(C)(C)c1ccc(Cn2cnc(N3CCN(c4ccc(F)cc4)CC3)nc2=O)cc1` [compound 5] was tested, and the pIC50 was 7.25.
With `O=c1nc(N2CCC(c3ccc(F)cc3)C(F)(F)C2)ncn1Cc1ccc(Cl)cc1` (stereo not shown) [466b] the pIC50 was 6.24.
`COC1CN(c2ncn(Cc3ccc(C(F)(F)F)s3)c(=O)n2)CC=C1c1ccc(F)cc1` (stereo not shown) [compound 475] gave a pIC50 of 7.41.
For `CCCCOc1nc(N2CCN(c3ccc(F)cc3)CC2)nc(=O)n1Cc1ccc(Cl)cc1` [compound 65], the pIC50 was 6.21.
`O=c1nc(N2CC=C(c3ccc(F)cc3)[C@@H](O)C2)ncn1Cc1ccc(OS(=O)(=O)C(F)(F)F)nc1` [compound 208] was tested, and the pIC50 was 8.21.
With `O=c1nc(N2CC=C(c3ccc(F)cc3)C(O)C2)ncn1Cn1ccc(C(F)(F)F)n1` (stereo not shown) [compound 188] the pIC50 was 7.38.
`O=c1nc(N[C@@H]2CCN(c3ccc(F)cc3)C2)ncn1Cc1ccc(C(F)(F)F)s1` [compound 224] showed a pIC50 of 7.24.
`COc1nc(C2=CCN(c3nc(C)n(Cc4ccc(OS(=O)(=O)C(F)(F)F)nc4)c(=O)n3)C[C@@H]2O)ccc1Cl` [compound 450] showed a pIC50 of 7.34.
Work on `O=c1nc(N2CC=C(c3ccc(F)cc3)C(O)C2)ncn1Cc1ccc(Cl)cc1` (stereo not shown) [compound 90] yielded a pIC50 of 7.72.
Compound `O=c1nc(N2CCN(c3ccc(F)cc3)CC2)ncn1Cc1ccc(C(F)(F)F)s1` [compound 25] has a pIC50 of 7.60.
